Experimental data as given in the NIST ThermoML archive (doi:10.1016/j.fluid.2016.10.026).

Details: for mass density / kinematic viscosity / speed of sound: Liquid; for mass density: Vibrating tube method; for surface tension liquid-gas: Drop volume; for kinematic viscosity: Capillary tube (Ostwald / Ubbelohde) method; for speed of sound: Frequency=3 MHz, Sing-around technique in a fixed-path interferometer

CC(=O)c1cccs1 [2-acetylthiophene]
Details	kinematic viscosity [m2/s]	mass density [kg/m3]	speed of sound [m/s]
298.15 K, 2000 kPa	–	1167.52	–
298.15 K, 5000 kPa	–	1169.28	–
298.15 K, 7000 kPa	–	1170.46	–
298.15 K, 10000 kPa	–	1172.2	–
298.15 K, 15000 kPa	–	1175.02	–
298.15 K, 20000 kPa	–	1177.77	–
298.15 K, 25000 kPa	–	1180.44	–
298.15 K, 30000 kPa	–	1183.06	–
298.15 K, 35000 kPa	–	1185.59	–
298.15 K, 40000 kPa	–	1188.08	–
298.15 K, 45000 kPa	–	1190.5	–
298.15 K, 50000 kPa	–	1192.87	–
298.15 K, 55000 kPa	–	1195.17	–
298.15 K, 60000 kPa	–	1197.42	–
298.15 K, 65000 kPa	–	1199.61	–
300.65 K, 101 kPa	2.1e-06	1163.91	1460.5
303.15 K, 100 kPa	–	1161.59	–
303.15 K, 101 kPa	1.99e-06	1161.52	1451.8
303.15 K, 2000 kPa	–	1162.77	–
303.15 K, 5000 kPa	–	1164.6	–
303.15 K, 7000 kPa	–	1165.79	–
303.15 K, 10000 kPa	–	1167.56	–
303.15 K, 15000 kPa	–	1170.45	–
303.15 K, 20000 kPa	–	1173.26	–
303.15 K, 25000 kPa	–	1175.98	–
303.15 K, 30000 kPa	–	1178.65	–
303.15 K, 35000 kPa	–	1181.25	–
303.15 K, 40000 kPa	–	1183.77	–
303.15 K, 45000 kPa	–	1186.24	–
303.15 K, 50000 kPa	–	1188.64	–
303.15 K, 55000 kPa	–	1190.99	–
303.15 K, 60000 kPa	–	1193.27	–
303.15 K, 65000 kPa	–	1195.5	–
305.65 K, 101 kPa	1.9e-06	1159.13	1443.2
308.15 K, 100 kPa	–	1156.84	–
308.15 K, 101 kPa	1.81e-06	1156.74	1434.8
308.15 K, 2000 kPa	–	1158.03	–
308.15 K, 5000 kPa	–	1159.89	–
308.15 K, 7000 kPa	–	1161.11	–
308.15 K, 10000 kPa	–	1162.92	–
308.15 K, 15000 kPa	–	1165.87	–
308.15 K, 20000 kPa	–	1168.75	–
308.15 K, 25000 kPa	–	1171.53	–
308.15 K, 30000 kPa	–	1174.24	–
308.15 K, 35000 kPa	–	1176.89	–
308.15 K, 40000 kPa	–	1179.46	–
308.15 K, 45000 kPa	–	1181.98	–
308.15 K, 50000 kPa	–	1184.43	–
308.15 K, 55000 kPa	–	1186.82	–
308.15 K, 60000 kPa	–	1189.15	–
308.15 K, 65000 kPa	–	1191.41	–
310.65 K, 101 kPa	1.72e-06	1154.35	1426.1
313.15 K, 100 kPa	–	1152.05	–
313.15 K, 101 kPa	1.65e-06	1151.96	1417.5
313.15 K, 2000 kPa	–	1153.3	–
313.15 K, 5000 kPa	–	1155.19	–
313.15 K, 7000 kPa	–	1156.45	–
313.15 K, 10000 kPa	–	1158.29	–
313.15 K, 15000 kPa	–	1161.33	–
313.15 K, 20000 kPa	–	1164.23	–

Details	surface tension liquid-gas [mN/m]
300.65 K	42.86
303.15 K	42.59
305.65 K	42.31
308.15 K	42.03
310.65 K	41.72
313.15 K	41.43
